# From ChEMBL document CHEMBL3885881, “DrugMatrix”
# Species: Rattus norvegicus
# Type: toxicity, organism-based, Sprague-Dawley
# Details: in vivo, po, 24 h, route oral GAVAGE, time 1 day, vehicle 100 % WATER; for ABSOLUTE BASOPHIL / ABSOLUTE EOSINOPHIL / ABSOLUTE LYMPHOCYTE / ABSOLUTE MONOCYTE / BASOPHIL / EOSINOPHIL / ERYTHROCYTE COUNT / HEMATOCRIT / HEMOGLOBIN / LEUKOCYTE COUNT / LYMPHOCYTE / MEAN CORPUSCULAR HEMOGLOBIN / MEAN CORPUSCULAR HEMOGLOBIN CONCENTRATION / MEAN CORPUSCULAR VOLUME / MONOCYTE / NEUTROPHIL / PLATELET COUNT: tissue Blood; for ALANINE AMINOTRANSFERASE / ALBUMIN / ALKALINE PHOSPHATASE / ASPARTATE AMINOTRANSFERASE / BLOOD UREA NITROGEN / CARBON DIOXIDE / CHLORIDE / CHOLESTEROL / CREATINE PHOSPHOKINASE / CREATININE / GLUCOSE / LACTATE DEHYDROGENASE / LIPASE / PHOSPHORUS / POTASSIUM / SODIUM / TOTAL BILIRUBIN / TOTAL PROTEIN / URIC ACID: tissue Plasma
# [1] = 0 mg/kg, vehicle control, dose level Control
# Description: DrugMatrix - Regimen: Single
smiles,measurement,setting,value
COCCc1ccc(OCC(O)CNC(C)C)cc1 (configuration not stated) [METOPROLOL],ABSOLUTE BASOPHIL,[1],63.3 cells/µL
same,ABSOLUTE EOSINOPHIL,[1],66.7 cells/µL
same,ABSOLUTE LYMPHOCYTE,[1],8010 cells/µL
same,ABSOLUTE MONOCYTE,[1],240 cells/µL
same,BASOPHIL,[1],0.6%
same,EOSINOPHIL,[1],0.6%
same,ERYTHROCYTE COUNT,[1],6.25 x10E6/uL
same,HEMATOCRIT,[1],40.47%
same,HEMOGLOBIN,[1],12.83 G/DL
same,LEUKOCYTE COUNT,[1],10.19 x10E3/uL
same,LYMPHOCYTE,[1],78.7%
same,MEAN CORPUSCULAR HEMOGLOBIN,[1],20.53 pg
same,MEAN CORPUSCULAR HEMOGLOBIN CONCENTRATION,[1],31.73 G/DL
same,MEAN CORPUSCULAR VOLUME,[1],64.67 fL
same,MONOCYTE,[1],2.5%
same,NEUTROPHIL,[1],17.07%
same,PLATELET COUNT,[1],1297 x10E3/uL
same,ALANINE AMINOTRANSFERASE,[1],32.67 u/L
same,ALBUMIN,[1],3.9 G/DL
same,ALKALINE PHOSPHATASE,[1],374 u/L
same,ASPARTATE AMINOTRANSFERASE,[1],64.33 u/L
same,BLOOD UREA NITROGEN,[1],14 mg/dL
same,CARBON DIOXIDE,[1],45.67 mmol/L
same,CHLORIDE,[1],103 MEQ/L
same,CHOLESTEROL,[1],82.67 mg/dL
same,CREATINE PHOSPHOKINASE,[1],216.33 u/L
same,CREATININE,[1],0.17 mg/dL
same,GLUCOSE,[1],161.33 mg/dL
same,LACTATE DEHYDROGENASE,[1],103.67 u/L
same,LIPASE,[1],8.67 u/L
same,PHOSPHORUS,[1],11 mg/dL
same,POTASSIUM,[1],6.83 MEQ/L
same,SODIUM,[1],144.67 MEQ/L
same,TOTAL BILIRUBIN,[1],0.27 mg/dL
same,TOTAL PROTEIN,[1],6.27 G/DL
same,URIC ACID,[1],0.67 mg/dL
same,ABSOLUTE BASOPHIL,"120 mg/kg, dose level High",66.7 cells/µL
same,ABSOLUTE EOSINOPHIL,"120 mg/kg, dose level High",90 cells/µL
same,ABSOLUTE LYMPHOCYTE,"120 mg/kg, dose level High",8230 cells/µL
same,ABSOLUTE MONOCYTE,"120 mg/kg, dose level High",290 cells/µL
same,BASOPHIL,"120 mg/kg, dose level High",0.6%
same,EOSINOPHIL,"120 mg/kg, dose level High",0.9%
same,ERYTHROCYTE COUNT,"120 mg/kg, dose level High",6.76 x10E6/uL
same,HEMATOCRIT,"120 mg/kg, dose level High",44.17%
same,HEMOGLOBIN,"120 mg/kg, dose level High",14.1 G/DL
same,LEUKOCYTE COUNT,"120 mg/kg, dose level High",10.39 x10E3/uL
same,LYMPHOCYTE,"120 mg/kg, dose level High",79.03%
same,MEAN CORPUSCULAR HEMOGLOBIN,"120 mg/kg, dose level High",20.87 pg
same,MEAN CORPUSCULAR HEMOGLOBIN CONCENTRATION,"120 mg/kg, dose level High",31.9 G/DL
same,MEAN CORPUSCULAR VOLUME,"120 mg/kg, dose level High",65.33 fL
same,MONOCYTE,"120 mg/kg, dose level High",2.8%
same,NEUTROPHIL,"120 mg/kg, dose level High",16.1%
same,PLATELET COUNT,"120 mg/kg, dose level High",1170 x10E3/uL
same,ALANINE AMINOTRANSFERASE,"120 mg/kg, dose level High",33.33 u/L
same,ALBUMIN,"120 mg/kg, dose level High",3.83 G/DL
same,ALKALINE PHOSPHATASE,"120 mg/kg, dose level High",431 u/L
same,ASPARTATE AMINOTRANSFERASE,"120 mg/kg, dose level High",59 u/L
same,BLOOD UREA NITROGEN,"120 mg/kg, dose level High",13 mg/dL
same,CARBON DIOXIDE,"120 mg/kg, dose level High",38.67 mmol/L
same,CHLORIDE,"120 mg/kg, dose level High",103.33 MEQ/L
same,CHOLESTEROL,"120 mg/kg, dose level High",74 mg/dL
same,CREATINE PHOSPHOKINASE,"120 mg/kg, dose level High",229.33 u/L
same,CREATININE,"120 mg/kg, dose level High",0.3 mg/dL
same,GLUCOSE,"120 mg/kg, dose level High",178 mg/dL
same,LACTATE DEHYDROGENASE,"120 mg/kg, dose level High",77.67 u/L
same,LIPASE,"120 mg/kg, dose level High",8 u/L
same,PHOSPHORUS,"120 mg/kg, dose level High",12.3 mg/dL
same,POTASSIUM,"120 mg/kg, dose level High",6.47 MEQ/L
same,SODIUM,"120 mg/kg, dose level High",144 MEQ/L
same,TOTAL BILIRUBIN,"120 mg/kg, dose level High",0.23 mg/dL
same,TOTAL PROTEIN,"120 mg/kg, dose level High",6.2 G/DL
same,URIC ACID,"120 mg/kg, dose level High",0.9 mg/dL
